Values quoted from earlier work as cited in patent US20120321587A1, “COMPOSITIONS AND METHODS OF USE PERTAINING TO INSECTICIDE” (priority 2009, published 2012).

Tested on: aphids
Details: nymphs and adults

Row | Compound | efficacy in treating aphids
1 | CCCCCCCCCCCCOS(=O)(=O)[O-].[Na+] [sodium lauryl sulfate] | limited efficacy
2 | CCCCCCCCOC(=O)CC(C(=O)OCCCCCCCC)S(=O)(=O)O.[Na] (centres unmarked) [sodium dioctyl sulfosuccinate] | primary compound responsible for the observed insecticidal activity
